Measurements as given in US20160168140A1, “HETEROCYCLIC COMPOUNDS AS ANTIBIOTIC POTENTIATORS” (priority 2014, published 2016).

Each compound was assayed on Acinetobacter baumannii (Ab23) (assay: MIC shift assay of antibiotics (broth microdilution)). Details: compound concentration 2 μM; fold shift of colistin MIC; nc = no changeover or no shift.
Assay type: cell-based
Procedure: Minimum inhibitory concentration (MIC) shift assays were performed to determine if the test compounds could alter the MIC of existing antibacterial drugs (e.g., ciprofloxacin and colistin) for E. coli, Acinetobacter baumannii, Klebsiella pneumoniae, Pseudomonas aeruginosa, and Enterobacter cloacae. The MIC shift assay is based on the standard broth microdilution MIC determination protocol of Wiegand et al, Nat Protoc. 3(2):163-75 (2008), with slight modifications that allow for the screening of up to seven test compounds in a single plate.
On the day before an assay, bacteria were grown overnight in cation-adjusted Mueller Hinton broth (CAMHB; Teknova, Hollister, Calif.) at 37° C. in an orbital shaker and sub-cultured at a 1:200 dilution the following morning. The cells were grown to OD600=0.5 to 0.8 and then diluted to OD600=0.01. From a serial dilution of each antibiotic at (50 μL of 2× concentrated stock solutions) several concentrations were added to the wells of a sterile, transparent round-bottom 96-well plate (Phenix Research Products, Candler, N.C.), and diluted cells (50 μL) were added to the plates for a starting OD600 of 0.005. […] A row of wells lacking test compound but containing the antibiotic was used to determine the MIC of that antibiotic alone. A column of wells lacking both antibiotic and test compound served as a growth control, and an additional column containing only CAMHB was included as a sterile blank control.
The plates were incubated for 18 to 20 h at 37° C. in an orbital shaker, and the cell density (OD600) was determined the following day in a microplate reader (PolarStar Optima, BMG Labtech). The MIC shift was determined by comparing the MIC of the antibiotic alone to the MIC of the antibiotic plus test compound.

Compound	colistin MIC shift, Ab23 at (compd concentration)
Fc1ccc2c(/C=C/c3cccc(Cl)c3Cl)c[nH]c2c1 [compound 383]	≧16x (2μM)
Cc1cccc2c(NCCCN(C)C)nc(-c3cc(-c4ccncc4)cc(C(F)(F)F)c3)nc12 [compound 336]	8-16x
CNCCCN(C)c1nc(-c2cccc(-c3cc(F)cc(C(F)(F)F)c3)c2)nc2c(Cl)cccc12 [compound 350]	8-16x
CNCCCN(C)c1nc(-c2cc(-c3ccccc3)cc(C(F)(F)F)c2)nc2c(C)cccc12 [compound 349]	8-16x

Same assay, conditions: compound concentration 4 μM; fold shift of colistin MIC; nc = no changeover or no shift

Compound	colistin MIC shift, Ab23 at (compd concentration)
Clc1ccc(/C=C/c2c[nH]c3cc(Cl)c(Cl)cc23)cc1Cl [compound 374]	16x
3,3′-(propane-2,2-diyl)bis(5,6-dichloro-1H-indole) [compound 461]	64x
CCN(CC)CCCC(C)Nc1nc(-c2cn(Cc3ccc(C)cc3)c3c(Cl)cccc23)nc2c(C)cccc12 (racemic) [compound 572]	4x
FC(F)(F)c1cccc(-c2ccc3[nH]ccc3c2)c1 [compound 398, 5-(3-(trifluoromethyl)phenyl)-1H-indole]	4x
Fc1ccc2c(/C=C/c3ccc(OC(F)(F)F)cc3)c[nH]c2c1 [compound 394]	8x
CN(C)CCCNc1nc(-c2csc3ccc(Cl)cc23)nc2c(Cl)cccc12 [compound 592]	32x
CCN(CC)CCCC(C)Nc1nc(/C=C/c2ccc(Cl)c(Cl)c2)nc2cc(Cl)ccc12 (racemic) [compound 325]	4x
CCN(CC)CCCC(C)Nc1nc(-c2cccc(-c3cccc(C(F)(F)F)c3)c2)nc2c(C)cccc12 (stereo not drawn) [compound 465]	8-16x
COc1ccc2[nH]cc(/C=C/c3ccc(Cl)c(Cl)c3)c2c1 [compound 373]	8-16x
Fc1ccc2c(/C=C/c3cccc(Cl)c3Cl)c[nH]c2c1 [compound 383]	32x (4 μM);
Cc1cccc2c(NCCCN(C)C)nc(-c3cccc(-c4cc(C(F)(F)F)ccc4F)c3)nc12 [compound 474]	32x
Cc1cccc2c(NCCCN)nc(-c3cc(Br)cc(C(F)(F)F)c3)nc12 [524a]	128x
CN(C)CCCN(C)c1nc(/C=C/c2ccc(Cl)c(Cl)c2)nc2cc(Cl)c(Cl)cc12 [compound 327]	8-16x
CCN(CC)CCCC(C)Nc1nc(/C=C/c2ccc(Cl)c(Cl)c2)nc2c(F)cccc12 (racemic) [compound 319]	2x
CCN(CC)CCCC(C)Nc1nc(-c2ccc3cc(Cl)c(Cl)cc3c2)nc2c(C)cccc12 (stereo not drawn) [compound 443]	16x
Fc1ccc2c(/C=C/c3ccc(C(F)(F)F)c(Cl)c3)c[nH]c2c1 [compound 393]	16x
COc1ccc2c(NCCCN(C)C)nc(/C=C/c3ccc(Cl)c(Cl)c3)nc2c1C [compound 467, (E)-N^1-(2-(3,4-dichlorostyryl)-7-methoxy-8-methylquinazolin-4-yl)-N^3,N^3-dimethylpropane-1,3-diamine]	16x
FC(F)(F)c1ccc2[nH]cc(/C=C/c3ccc(Cl)c(Cl)c3)c2c1 [compound 369]	32x
Cc1cccc2c(NCCCN(C)C)nc(-c3ccc4cc(Cl)c(Cl)cc4c3)nc12 [compound 444]	16x
CN(C)CCCNc1nc(-c2cccc(-c3ccccc3)c2)nc2c(Cl)cccc12 [compound 486]	4x
CN1CCN(CCn2cc(/C=C/c3ccc(Cl)c(Cl)c3)c3ccc(F)cc32)CC1 [compound 357]	4-8x
CN(C)CCCNc1nc(-c2cn(Cc3ccccc3)c3c(Cl)cccc23)nc2c(-c3ccncc3)cccc12 [compound 571]	4x
CN(C)CCCn1cc(/C=C/c2ccc(Cl)c(Cl)c2)c2cc(Br)ccc21 [compound 356]	16-64x
Cc1cccc2c(N(C)CCCN(C)C)nc(-c3cn(Cc4ccc(Cl)cc4)c4c(Cl)cccc34)nc12 [compound 582]	8x
CCC(N)C(=O)n1cc(-c2ccc(Cl)c(Cl)c2)c2cc(Cl)ccc21 (stereo not drawn) [362f]	64x
Cc1ccc2[nH]cc(/C=C/c3ccc(Cl)c(Cl)c3)c2c1 [compound 370]	32x
Cc1cccc2c(N(C)CCCN(C)C)nc(-c3cc(Br)cc(C(F)(F)F)c3)nc12 [compound 502]	32x

Same assay, conditions: compound concentration 8 μM; fold shift of colistin MIC; nc = no changeover or no shift

Compound	colistin MIC shift, Ab23 at (compd concentration)
COc1cc(-c2nc(NCCCN(C)C)c3cccc(C)c3n2)cc(C(F)(F)F)c1 [compound 504]	16x
O=C(Nc1cccc(C(F)(F)F)c1)c1c[nH]c2ccc(Br)cc12 [compound 428]	4x

Same assay, conditions: compound concentration 10 μM; fold shift of colistin MIC; nc = no changeover or no shift

Compound	colistin MIC shift, Ab23 at (compd concentration)
Cc1cccc(-c2n[nH]c3cc(F)ccc23)c1 [compound 535]	1x
Fc1ccc(-c2n[nH]c3cc(C(F)(F)F)ccc23)cc1C(F)(F)F [compound 549]	32x
FC(F)(F)c1cc(Br)cc(-c2n[nH]c3cc(C(F)(F)F)ccc23)c1 [compound 548]	16x
FC(F)(F)c1ccc2c(-c3cccc(-c4cc(Cl)cc(Cl)c4)c3)n[nH]c2c1 [compound 530]	4x
Cc1cccc2c(NCCCN(C)C)nc(-c3cc(N4CCOCC4)cc(C(F)(F)F)c3)nc12 [compound 501]	8x
O=C(O)Cn1cc(/C=C/c2ccc(Cl)c(Cl)c2)c2ccc(F)cc21 [compound 416]	4x
CCN(CC)CCCC(C)Nc1nc(-c2cn(Cc3ccccc3)c3c(Cl)cccc23)nc2ccccc12 (racemic) [compound 562]	8x
COC(=O)c1cc(-c2n[nH]c3cc(C(F)(F)F)ccc23)cc(C(F)(F)F)c1 [compound 553]	1x
Fc1ccc2c(-c3cccc(Cl)c3)n[nH]c2c1 [compound 534]	1x
FC(F)(F)c1ccc2c(-c3ccc(Cl)c(Cl)c3)nn(Cc3ccc(Cl)cc3)c2c1 [compound 542]	1x
CCN(CC)CCCC(C)Nc1nc(/C=C/c2ccc(Cl)c(Cl)c2)nc2cc(F)c(F)cc12 (racemic) [compound 321]	8x
Cc1ccc2nc(-c3cc(Br)cc(C(F)(F)F)c3)nc(NCCCN(C)C)c2c1 [compound 516]	16x
